We go through 6 molecules from ChEMBL document CHEMBL1141795, “Aspirochlorine class compounds from Aspergillus flavus inhibit azole-resistant Candida albicans” (J Nat Prod, 2005).

The test system of series [1] is Candida albicans. The experiment in a line: Antifungal activity against azole-resistant Candida albicans 99-788. In kind it is functional, organism-based.
Series [2] concerns CCRF-CEM. The series can be described thus: Cytotoxicity against human CEM cells after 96 hrs. In kind it is functional, cell-based.
A short description of series [3]: in vitro. Conditions: human.
Description: Therapeutic index, IC50 for human CEM cells to IC 50 for azole-resistant Candida albicans 99-788
Setting [4] is: CEM cells (versus azole-resistant Candida albicans 99-788).

The term IC50 denotes the concentration needed to halve the response being measured.

Turning to `CC(C)C[C@@H]1C(=O)N[C@@H](Cc2c[nH]c3ccccc23)C(=O)N1C`, the IC50 in series [1] and in series [2] was more than 31 µM throughout.
`C[C@@H]1[C@H](O)[C@@H](C)/C=C/C=C/C=C/C=C/C=C/C=C/C=C/[C@H](O[C@@H]2O[C@H](C)[C@@H](O)[C@H](N)[C@@H]2O)C[C@@H]2O[C@](O)(C[C@@H](O)C[C@@H](O)[C@H](O)CC[C@@H](O)C[C@@H](O)CC(=O)O[C@H]1C)C[C@H](O)[C@H]2C(=O)O` [AMPHOTERICIN B]: the selectivity ratio in series [3] (ccrf-cem) was determined as 1000. In addition, the IC50 in series [1] turned out to be 0.16 µM; in series [2], 160 µM.
As to `CON1C(=O)[C@H]2NC(=O)[C@]13Oc1cc(O)c(Cl)cc1[C@@H]3SS2` [ASPIROCHLORINE], in series [3] (setting [4]), the selectivity ratio worked out at 20. Also, the results for the IC50 in series [1] and in series [2] were 0.028 µM and 0.58 µM, respectively.
Regarding `CN1C(=O)[C@]23CC4=CC=C[C@H](O)[C@H]4N2C(=O)[C@@]1(CO)SS3` [GLIOTOXIN], the IC50 in series [1] was 3.1 µM; in series [2] it was 0.15 µM.
`COC1=CC(=O)C[C@@H](C)[C@]12Oc1c(Cl)c(OC)cc(OC)c1C2=O` [GRISEOFULVIN]: the half-maximal inhibitory concentration (IC50) is more than 28 µM in series [1] and 10 µM in series [2].
As for `CON1C(=O)C2NC(=O)[C@@]13Oc1cc(O)c(Cl)cc1[C@@H]3SSSS2` [TETRATHIOASPIROCHLORINE], the selectivity ratio in series [3] (setting [4]) was determined as 50. Also, the IC50 in series [1] amounted to 0.083 µM; in series [2] it was 4.2 µM.
